Common to all, as to format: functional
Test [1] can be described thus: Compound was evaluated for percent inhibition of carrageenan induced rat paw edema at 0.005 mmol/kg. For orientation: The carrageenan paw model is a standard test of acute inflammation.
Test [2] deals with Chymotrypsinogen B (Homo sapiens) (UniProt P17538). Description: Compound was evaluated for in vitro inhibition of chymotrypsinogen acting as esterase at 0.1 mM concentration.
The target is the same in test [3]. Description: Compound was evaluated for in vitro inhibition of chymotrypsinogen acting as esterase at 1 mM concentration.
For test [4] the target is unchanged. Kind of test: Compound was evaluated for in vitro inhibition of chymotrypsinogen induced proteolysis at 0.1 mM concentration.
The target is the same in test [5]. Description: Compound was evaluated for in vitro inhibition of chymotrypsinogen induced proteolysis at 1 mM concentration.
The target of test [6] is T1, Seed linoleate 13S-lipoxygenase-1 (Glycine max) (UniProt P08170).
T1 sequence (whole entry): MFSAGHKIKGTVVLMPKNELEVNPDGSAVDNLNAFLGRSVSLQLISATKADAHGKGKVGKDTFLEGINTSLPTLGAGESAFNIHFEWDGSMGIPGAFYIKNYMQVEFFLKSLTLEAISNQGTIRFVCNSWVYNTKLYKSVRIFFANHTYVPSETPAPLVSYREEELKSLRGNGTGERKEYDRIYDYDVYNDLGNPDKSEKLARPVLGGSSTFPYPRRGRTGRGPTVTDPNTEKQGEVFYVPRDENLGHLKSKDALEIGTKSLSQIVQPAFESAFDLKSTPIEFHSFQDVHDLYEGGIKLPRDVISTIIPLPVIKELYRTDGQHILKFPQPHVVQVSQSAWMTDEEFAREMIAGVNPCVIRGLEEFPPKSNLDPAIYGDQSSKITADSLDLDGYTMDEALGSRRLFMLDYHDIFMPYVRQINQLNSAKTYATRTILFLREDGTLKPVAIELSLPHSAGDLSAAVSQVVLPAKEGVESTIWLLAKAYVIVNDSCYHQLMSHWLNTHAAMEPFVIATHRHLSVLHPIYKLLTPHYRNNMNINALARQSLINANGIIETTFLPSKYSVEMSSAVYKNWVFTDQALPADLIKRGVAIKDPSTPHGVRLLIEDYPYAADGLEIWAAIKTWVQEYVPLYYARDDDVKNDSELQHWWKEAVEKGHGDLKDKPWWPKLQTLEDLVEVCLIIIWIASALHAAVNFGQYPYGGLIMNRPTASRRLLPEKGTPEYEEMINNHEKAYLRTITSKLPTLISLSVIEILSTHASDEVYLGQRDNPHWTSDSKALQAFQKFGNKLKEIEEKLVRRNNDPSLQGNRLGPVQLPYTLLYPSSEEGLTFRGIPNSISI
Description: Compound was evaluated for in vitro inhibition of soybean lipoxygenase at 1 mM concentration; no action.

The target of test [7] is Serine protease 1 (Homo sapiens) (UniProt P07477). Description: Compound was evaluated for in vitro inhibition of trypsin acting as esterase at 0.1 mM concentration.
Sequence of Serine protease 1 (Homo sapiens) (P07477 whole entry): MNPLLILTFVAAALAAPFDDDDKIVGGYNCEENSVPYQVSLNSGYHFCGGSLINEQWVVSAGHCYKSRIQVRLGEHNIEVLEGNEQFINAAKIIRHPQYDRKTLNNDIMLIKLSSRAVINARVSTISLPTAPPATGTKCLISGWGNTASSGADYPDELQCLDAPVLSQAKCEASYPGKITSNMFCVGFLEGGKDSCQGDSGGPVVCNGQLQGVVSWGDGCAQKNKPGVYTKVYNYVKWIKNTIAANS
The target is the same in test [8]. Description: Compound was evaluated for in vitro inhibition of trypsin acting as esterase at 1 mM concentration.
Test [9] has the same target. Description: Compound was evaluated for in vitro inhibition of trypsin induced proteolysis at 0.1 mM concentration.
Test [10] has the same target. Kind of test: Compound was evaluated for in vitro inhibition of trypsin induced proteolysis at 1 mM concentration.
Test [11] is described as follows: Competition percent of compound with DMSO for hydroxyl radical was determined at 0.1 mM concentration.
The nature of test [12]: Interaction percent with DPPH after 60 minutes was determined at 0.5 mM concentration.
Test [13] is described as follows: Interaction percent with DPPH after 20 minutes was determined at 0.1 mM concentration. For orientation: The DPPH test is a chemical assay of radical scavenging.
Test [14] is described as follows: Interaction percent with DPPH after 20 minutes was determined at 0.5 mM concentration.
The nature of test [15]: Interaction percent with DPPH after 60 minutes was determined at 0.1 mM concentration.
Test [16] deals with T2, Beta-glucuronidase (Bos taurus) (UniProt A3KMY8).
T2 sequence (whole entry): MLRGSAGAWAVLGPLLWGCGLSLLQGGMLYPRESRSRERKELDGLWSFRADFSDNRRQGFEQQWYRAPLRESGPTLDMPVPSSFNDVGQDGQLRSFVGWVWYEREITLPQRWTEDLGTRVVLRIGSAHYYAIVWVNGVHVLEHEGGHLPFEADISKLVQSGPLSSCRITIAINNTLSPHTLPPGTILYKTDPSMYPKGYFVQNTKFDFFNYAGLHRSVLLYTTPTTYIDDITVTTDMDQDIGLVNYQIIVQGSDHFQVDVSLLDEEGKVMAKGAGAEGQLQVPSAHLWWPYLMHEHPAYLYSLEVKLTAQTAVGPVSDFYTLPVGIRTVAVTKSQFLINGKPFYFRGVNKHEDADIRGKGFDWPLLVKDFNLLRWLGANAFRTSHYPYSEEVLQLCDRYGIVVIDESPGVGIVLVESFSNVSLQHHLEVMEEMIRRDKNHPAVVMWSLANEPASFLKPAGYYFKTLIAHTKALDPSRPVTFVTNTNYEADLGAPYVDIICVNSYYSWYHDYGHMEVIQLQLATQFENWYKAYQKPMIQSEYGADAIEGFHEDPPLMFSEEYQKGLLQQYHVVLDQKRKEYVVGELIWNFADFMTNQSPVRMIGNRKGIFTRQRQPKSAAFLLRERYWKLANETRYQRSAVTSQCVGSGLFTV
Description: Compound was evaluated for in vitro inhibition of beta-glucuronidase at 0.1 mM concentration.

Test [17] concerns the target T2, Beta-glucuronidase (Bos taurus). Kind of test: Compound was evaluated for in vitro inhibition of beta-glucuronidase at 1 mM concentration.
Test [18] addresses Chymotrypsinogen B (Homo sapiens) (UniProt P17538). Description: Compound was evaluated for in vitro inhibition of chymotrypsinogen induced proteolysis at 0.1 mM concentration; no action.
The target of test [19] is T1, Seed linoleate 13S-lipoxygenase-1 (Glycine max). Kind of test: Compound was evaluated for in vitro inhibition of soybean lipoxygenase at 1 mM concentration.
For test [20] the target is unchanged. Kind of test: Compound was evaluated for in vitro inhibition of soybean lipoxygenase at 0.1 mM concentration.
The target in test [21] is Serine protease 1 (Homo sapiens) (UniProt P07477). Kind of test: Compound was evaluated for in vitro inhibition of trypsin induced proteolysis at 0.1 mM concentration; no action.
Test [22] is described as follows: Competition percent of compound with DMSO for hydroxyl radical was determined at 0.01 mM concentration.
Test [23] can be described thus: Interaction percent with DPPH after 60 minutes was determined at 0.2 mM concentration.
Test [24] is described as follows: Interaction percent with DPPH after 20 minutes was determined at 0.2 mM concentration.
Test [25] is described as follows: Competition percent of compound with DMSO for hydroxyl radical was determined at 0.1 mM concentration; No result.
For test [26], the target named is T1, Seed linoleate 13S-lipoxygenase-1 (Glycine max). Description: Compound was evaluated for in vitro inhibition of soybean lipoxygenase at 0.1 mM concentration; no action.

One may read the inhibition in vivo as how much of the control response was suppressed. Low readings indicate a response near the control, high ones a response far below the control. In general, inhibition refers to the change of the read-out against control, counted positive when it falls.

Sequence of Chymotrypsinogen B (Homo sapiens) (P17538 34-164 limits assumed, other chains not shown): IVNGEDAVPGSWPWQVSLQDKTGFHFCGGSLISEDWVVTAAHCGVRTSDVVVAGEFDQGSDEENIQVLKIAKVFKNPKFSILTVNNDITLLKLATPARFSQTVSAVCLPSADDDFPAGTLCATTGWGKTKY
Sequence of Chymotrypsinogen B (Homo sapiens) (P17538 167-263 limits assumed, other chains not shown): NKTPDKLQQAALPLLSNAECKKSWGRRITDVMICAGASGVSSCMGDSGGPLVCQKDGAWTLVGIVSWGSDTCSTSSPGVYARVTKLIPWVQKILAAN

`CC(=O)CC(c1ccccc1)c1c(O)c2ccccc2oc1=O` (stereo not drawn) [WARFARIN] showed an inhibition in vivo at 5 µmol/kg in [1] of 41%. Further, the inhibition is 18.4% in test [2]; 98.2% in [3]; 62.4% in test [4]; 86.7% in test [5]; “No action” in [6]; 21.2% in [7]. In addition, the inhibition in [8] was determined as 97.5%; in [9] it was 92.5%; in test [10], 94.8%. In test [11], this molecule yielded a Competition of 95.8%. The RA in test [12] was determined as 12.8%; in test [13], 9.2%; in test [14], 10.3%; in test [15] it was 24%.

As to `O=c1ccc2ccc(/C=N/Nc3ccccc3)cc2o1`, the inhibition is 5.9% in test [16]; 96.8% in test [17]; 30.6% in test [2]; 88.7% in test [3]; “No action” in test [18]; 80.1% in test [5]. Besides, the inhibition in [19] was 71.2%; in test [20], 77.4%; in [7], 31.4%; in test [8], 99.9%; in [21], “No action”; in [10], 64.5%. Also, the inhibition in vivo at 5 µmol/kg in test [1] came to 35.2%. The Competition in [22] amounted to 15.4%; in test [11], 65.5%. For the same molecule, the RA in test [23] was 64.4%; in [12], 79.1%; in [13], 36.2%; in [24] it was 48.9%; in test [14], 78.7%; in test [15], 56.2%.

As to `CN/N=C/c1ccc2ccc(=O)oc2c1`, the inhibition is 6.9% in test [16]; 93.3% in [17]; 10% in test [2]; 83.4% in [3]; “No action” in test [18]; 93.9% in test [5]. Also, the inhibition in test [19] is 100%; in test [20], 70.8%; in test [7], 22.6%; in [8] it was 97.6%; in test [21], “No action”; in [10] it was 100%. The molecule also yielded an inhibition in vivo at 5 µmol/kg in test [1] of 54.7%. Moreover, the Competition was 97.3% in [22] and “No results” in [25]. Moreover, the RA in test [23] is 86.7%; in test [12] it was 87.3%; in [13] it was 69.7%; in [24] it was 84.8%; in test [14] it was 92.4%; in test [15], 80.7%.

As to `CC(O)Cc1ccc2ccc(=O)oc2c1` (stereo not drawn), the inhibition is 7.5% in [16]; 92.3% in test [17]; 31.3% in test [2]; 100% in test [3]; “No action” in test [18]; 63.1% in test [5]. Also, the inhibition is 100% in test [19]; 29.3% in test [7]; 99.4% in test [8]; 41.1% in [9]; 95.4% in test [10]; “No action” in test [26]. For the same molecule, in [1], the inhibition in vivo at 5 µmol/kg amounted to 18%. Also, the Competition in [22] is 80.7%; in test [11], 81.8%. Moreover, the RA in [23] turned out to be 16.8%; in [12], 25.6%; in [13], 14.5%; in test [24], 18.4%; in test [14], 22.9%; in test [15], 13.3%.

Source of the values: ChEMBL document CHEMBL1147420, “Synthesis and biological evaluation of novel coumarin derivatives with a 7-azomethine linkage” (2004).
